# Earlier results as cited in US20260256768A1, “DRY POWDER COMPOSITIONS OF BEDAQUILINE AND SALTS AND METHODS OF USE THEREOF” (Insmed Incorporated, priority 2022, published 2026).
# Assays:
# [1] = system: MCF7 breast cancer cells-derived cancer stem-like cells
# cancer metastasis = settings: in vivo
# [2] = system: non-small cell lung cancer cell lines; settings: two non-small cell lung cancer cell lines
# lung tumor = settings: animal model
smiles,measurement,setting,value
"COc1nc2ccc(Br)cc2cc1[C@@H](c1ccccc1)[C@@](O)(CCN(C)C)c1cccc2ccccc12 [bedaquiline, (1R,2S)-1-(6-bromo-2-methoxyquinolin-3-yl)-4-(dimethylamino)-2-naphthalen-1-yl-1-phenylbutan-2-ol]",effect on propagation and expansion of cancer stem-like cells,[1],block the propagation and expansion
same,effect on cancer metastasis,cancer metastasis,inhibit cancer metastasis
same,cytotoxicity,[2],cytotoxic properties
same,effect on lung tumor growth and angiogenesis,lung tumor,inhibit lung tumor growth and angiogenesis
